Measured values as given in ChEMBL document CHEMBL3507680, “University of Dundee, Gates Library screen for HepG2 cell viability”.

Assay: Human HepG2 cell viability assay in 384 well format
Assay type: toxicity, cell-based
Design: dose 125 nL, time 70.5 hour; concentration not given beside the values
Details: HepG2 cells, read-out: Inhibition

Row | SMILES | cytotoxicity at 70.5 h [%]
1 | COc1ccccc1-c1ccnc2nc(N3CCCCC3)[nH]c(=O)c12 | -15.7
2 | CNC(=O)C(C)CN(C)C(=O)Nc1ccc(Cl)cc1-n1cccc1 (stereo unspecified) | 4.05
3 | CCS(=O)(=O)N1CCC(Oc2ccc(C#N)cc2)CC1 | 24.1
4 | CCN(CC1CN(Cc2nc(C3CC3)no2)CCO1)c1cccnn1 (stereo unspecified) | -16.6
5 | CN(Cc1ccc(C2CC(=O)Nc3cc4[nH]ncc4cc32)o1)S(C)(=O)=O (stereo unspecified) | -0.109
6 | CC1c2cc(F)ccc2CCN1CCCS(=O)(=O)C(C)C (stereo unspecified) | -2.78
7 | O=C(Nc1nc2c(s1)CN(S(=O)(=O)C1CC1)CC2)c1ccc(=O)[nH]c1 | -10.9
8 | COc1ccc(-n2cc(CCO)cn2)cc1C | -9.33
9 | COCCN(Cc1ccc(F)cc1Cl)C(=O)c1cc(C)no1 | -1.27
10 | CC(C)Nc1ccnc(N2Cc3cnc(C(C)(C)C)nc3C2)n1 | 17.3
11 | Cc1nn(C)c(C)c1C1COCCN1C(=O)CCc1ccccc1 (stereo unspecified) | -1.71
12 | O=C(NCC1(O)CCOCC1)c1ccc(F)cc1 | -4.94
13 | Cc1noc(CN(CCO)Cc2cc(Br)ccc2F)n1 | -1.67
14 | COc1ccc(CN2CCn3cc(Cn4cccn4)nc3C2)cc1 | 3.13
15 | COc1cccc(CN2C[C@H]3CC[C@H]2C3)c1OCCN1CCOCC1 | -2.04
16 | Cc1cccc(C(=O)N2CCCSCC2CN2CCCC2)c1 (stereo unspecified) | -0.415
17 | CN(C)C(=O)C1CN(Cc2ccsc2)CCN(S(C)(=O)=O)C1 (stereo unspecified) | -6.36
18 | CCN(C(C)=O)C(c1ccc(Cl)cc1)c1ccccn1 (stereo unspecified) | -14.6
19 | CN1CC(C(=O)NCc2ccnc(-n3cccn3)c2)CC1=O (stereo unspecified) | -22.4
20 | CC(C)CCNC(=O)CCc1ccnc2ccccc12 | -14.4
21 | COCC(=O)N1CCC2(CC1)CC(c1cnn(C)c1)C(=O)N2 (stereo unspecified) | -6.84
22 | Cc1nnc(C(C)N2CCN(Cc3ccc4c(c3)OCO4)CC2)o1 (stereo unspecified) | 16.9
23 | CN1CCN(Cc2cnn(-c3ccc(F)cc3)c2)[C@H]2CS(=O)(=O)C[C@H]21 | -4.08

Row | SMILES | cytotoxicity at 70.5 h [%]
24 | CC(C)(C)c1nnc(NCc2ccc(F)cc2)o1 | -2.71
25 | O=C(NS(=O)(=O)c1ccc2c(c1)OCCO2)c1ccc(Br)cc1F | 5.66
26 | Cc1cc2n(n1)CC(CNCc1ccc(N3CCOCC3)nc1)CN2 (stereo unspecified) | -9.07
27 | CCC[C@H]1CN(S(C)(=O)=O)C[C@@H]1NC(=O)Cc1ccc(OC)cc1 | 9.24
28 | Cc1cc(C(=O)OCC2CCCN2C(N)=O)c(C)o1 (stereo unspecified) | -6.63
29 | c1ccc2[nH]c(C3CCN(Cc4noc(C5CC5)n4)CC3)cc2c1 | -3.83
30 | Nc1nc2nc(C3CCCN(C(=O)c4cnccn4)C3)ccc2s1 (stereo unspecified) | -3.81
31 | Cc1ccc(C)c(-c2[nH]c3ccccc3c2C(=O)O)c1 | -12.7
32 | Cc1nc(O)cc(CN2C[C@H](NC(=O)C3CCCC3)[C@@H](C3CC3)C2)n1 | -9.17
33 | Cc1nc(N)sc1C(=O)N1CCC(C(O)Cc2ccccc2)CC1 (stereo unspecified) | -7.21
34 | Cc1cnc(CNC2CCc3nc(C(C)C)nn3C2)cn1 (stereo unspecified) | -2.01
35 | CC(NCCCc1cnn(C)c1)c1ccc(Br)s1 (stereo unspecified) | -1.02
36 | Cc1ccc2c(n1)N(C)CCN(C(=O)NC(C)C)C2 | -6.1
37 | COC(=O)NCC(=O)NC1(C)CCc2ccccc2C1 (stereo unspecified) | -8.98
38 | CS(=O)(=O)NC1CCCN(C(=O)NCc2cccc(F)c2)C1 (stereo unspecified) | -4.51
39 | O=C(NC1CC(=O)N(C2Cc3ccccc3C2)C1)c1csnn1 (stereo unspecified) | -1.65
40 | CCS(=O)(=O)NC1CCCN(c2ccc(F)cc2C)C1=O (stereo unspecified) | -3.11
41 | CC(C)(C)CC(=O)NCC(=O)NS(=O)(=O)c1cccnc1 | 2.71
42 | Cn1nc(CNC(=O)CC#N)c2c1CN(CC1CC1)CC2 | -3.91
43 | CCC(=O)N1CCC2(CC1)c1nc[nH]c1CCN2S(C)(=O)=O | -4.48
44 | O=C(Cc1ccc(O)c(F)c1)N1CCC2(CCNCC2)CC1 | -1.13
45 | O=C(CN1CCCCCC1)NCc1ccc2[nH]c(=O)[nH]c2c1 | -8.16
46 | CCn1ncc2[nH]c(-c3cc4c(cc3OC)OCO4)nc21 | -4.87

Row | SMILES | cytotoxicity at 70.5 h [%]
47 | CN1Cc2nc[nH]c2C[C@H]1C(=O)NC1CCCCC1 | -3.45
48 | COCCN1CCN(CC(=O)N(C)Cc2ccc(C)o2)CC1C (stereo unspecified) | -12.6
49 | COC(C)c1cccc(NCc2cccc(O)c2)c1 (stereo unspecified) | -4
50 | COCCN1C[C@H]2CN(C(=O)c3ccc4c(c3)OCO4)CCN2C1=O | -3.46
51 | COC(CNC(=O)c1ccc(NC(C)=O)cc1)c1cccc(Cl)c1 (stereo unspecified) | -5.6
52 | Cc1nc(N2CCN(C(=O)c3ccsc3)CC2)c2cnn(C)c2n1 | -10.3
53 | CC(=O)N1CCCN(C(=O)c2ccc(Sc3ccccn3)cc2)CC1 | -8.48
54 | Oc1ccccc1CN1CCC(n2cc(-c3ccc(F)cc3)nn2)CC1 | -4
55 | CN1C[C@]2(CC[C@@H](C(=O)O)CC2)Oc2ccccc2C1=O | -6.54
56 | Cn1cc(Br)c(=O)c(NS(=O)(=O)c2ccccc2F)c1 | -9.33
57 | CC(C)(C)OC(=O)N1CCCCC(NC(=O)CCc2cccnc2)C1 (stereo unspecified) | -3.57
58 | Cc1ccc(C2CCCN(S(=O)(=O)N3CCOCC3)C2)nc1 (stereo unspecified) | -4.54
59 | CC1(C)CC(=O)c2cnc3nc(N4CCOCC4)nc(O)c3c2C1 | -1.04
60 | CCc1ccc2nc(C)cc(C(=O)NC3CCC(=O)N(C)C3)c2c1 (stereo unspecified) | -4.56
61 | CNC(=O)C1CN(C(=O)COc2ccccc2)Cc2cn(C)nc21 (stereo unspecified) | -3.29
62 | O=C(c1ccsc1)N1C[C@@H]2C[C@@H](c3nnc(C4CC4)o3)O[C@@H]2C1 | -8.35
63 | CCc1noc(CN2CCC(C(=O)Nc3cnn(CC)c3)CC2)n1 | -10.6
64 | CCn1nc(C)cc1C(=O)N1C[C@@H]2C[C@@H](c3nc(C)cs3)O[C@@H]2C1 | -2.46
65 | COc1ccc(C(=O)NC[C@H]2COCc3nc4cc(C)ccc4n32)cc1 | -4.37
66 | CO[C@H]1CC[C@H]2[C@H]1OCCN2C(=O)CC1=CCCCC1 | -2.24
67 | Cc1nc[nH]c1CN1CCN(C(=O)C2(C)CC2)[C@H]2CS(=O)(=O)C[C@H]21 | -11.5
68 | CCc1cccc2cc(CNCCCN3CCOCC3)c(=O)[nH]c12 | 0.0251
69 | CCCn1nccc1-c1cc(C2CCN(S(C)(=O)=O)CC2)ccn1 | -6.09

Row | SMILES | cytotoxicity at 70.5 h [%]
70 | Cc1nc(C2CCCN2C(=O)COCCOc2ccccc2)no1 (stereo unspecified) | 8.74
71 | Cc1noc(C)c1CC(=O)N1CCCC(c2noc(C(C)C)n2)C1 (stereo unspecified) | -9.31
72 | NC(=O)CCC1CCCN(Cc2cnc(N3CCCCC3)nc2)C1 (stereo unspecified) | -3.37
73 | c1ncn(Cc2cnc3n2CCN(Cc2ccsc2)CC3)n1 | 1.42
74 | CCOCC1CN(C(=O)c2cccs2)Cc2cnn(CC3CC3)c21 (stereo unspecified) | -6.77
75 | CS(=O)(=O)c1ccc(-c2cc(O)cc(CCC3CCCCN3)c2)cc1 (stereo unspecified) | -7.28
76 | CC(C)c1ccc(CC(=O)N2CCCC3(CN(C)C(=O)O3)C2)cc1 (stereo unspecified) | 22.5
77 | COc1ccc(CN2CCCC2c2cccc(F)c2)c(OC)c1OC (stereo unspecified) | -6.93
78 | Nc1c(N2CCCC2)ncnc1N1CCOCC1 | 20.6
79 | O=C1CC(NCc2ccc(OC(F)F)cc2)CN1Cc1cccc(F)c1 (stereo unspecified) | -4.49
80 | O=C(COCc1ccccc1)N1CCCC1c1noc(C2CC2)n1 (stereo unspecified) | -7.31
81 | COc1ccc(OC)c(C2CCN(C(=O)C3CCN(C(C)C)CC3)C2)c1 (stereo unspecified) | -8.95
82 | Cc1c(Cl)cccc1S(=O)(=O)NCc1cnc(N(C)C)n1C | -8.26
83 | C[C@@H]1C(=O)NC[C@H]2CN(Cc3ccc4c(c3)OCO4)C[C@H]21 | -10.2
84 | CNC(=O)c1sccc1S(=O)(=O)Nc1ccc(C)cc1 | -1.86
85 | CC(C)N1CCC(C(=O)N2CCN(c3cccc(C(=O)O)c3)CC2)CC1 | -9.74
86 | Cc1nccn1CCCN1CCCC(c2nccn2C)C1 (stereo unspecified) | 21.3
87 | CN1CCC2(CC1)OC(C(=O)NCc1cccnc1)Cn1ccnc12 (stereo unspecified) | -11.2
88 | Cc1nc(C)c(Cc2nc(C3CC3)n[nH]2)c(=O)[nH]1 | -3.16
89 | CC(CN1CC[C@@H]2CCCC[C@@H]2C1)n1cnc2ccccc21 (stereo partly specified) | 21.4
90 | CCOc1cc(CNC(=O)C(C#N)c2nc(C)cs2)ccc1OC(F)F (stereo unspecified) | -0.465
91 | CN(CCc1ccccn1)C(=O)C(c1cccnc1)N1CCOCC1 (stereo unspecified) | -1.97
92 | Cc1ccc([C@]2(O)CC[C@H]3CN(Cc4cccc(F)c4F)C[C@H]32)nc1 | 5.11

Row | SMILES | cytotoxicity at 70.5 h [%]
93 | CC(NCC1CCN(CCO)CC1)c1ccc(F)c(Cl)c1 (stereo unspecified) | 0.00897
94 | CC(C)c1nnc2n1CCN(C(=O)c1ccc(CN(C)C)cc1)C2 | 3.04
95 | Cn1cc(C2CCCN2CCC(=O)N2CCc3sccc3C2)cn1 (stereo unspecified) | -4.52
96 | Clc1ccc2[nH]c3c(c2c1)CCCC3c1nn[nH]n1 (stereo unspecified) | -6.09
97 | COC1CCN(S(=O)(=O)N2CCCC2c2ccco2)CC1 (stereo unspecified) | 0.386
98 | NC(=O)C1CCCN1Cc1cccc(NC(=O)c2ccc(Cl)cc2F)c1 (stereo unspecified) | -20.5
99 | CCCc1noc(CN(C)C(=O)C2COc3ccccc3C2)n1 (stereo unspecified) | -16.1
100 | O=C(CCNc1ccccc1)NC1CCN(C(=O)C2CCCCC2)CC1 | -5.78
101 | O=C(c1cc[nH]n1)N1CC[C@@H]2CN(Cc3cccnc3)S(=O)(=O)[C@@H]2CC1 | -1.58
102 | Cc1cc(NCC2CCS(=O)(=O)C2)n2nc(C)cc2n1 (stereo unspecified) | 12.6
103 | O=C(c1cnc(-c2cccnc2)nc1)N1CCC(c2ccncc2)CC1 | -5.85
104 | O=C(c1cnccn1)N1CCc2ncc(CN3CCOCC3)n2CC1 | -8.64
105 | Cc1ccccc1CC1(CO)CCCN(c2ncncc2C(C)C)C1 (stereo unspecified) | 5.34
106 | CN(Cc1nc(N)c2ccccc2n1)C1CCCN(c2cccnn2)C1 (stereo unspecified) | -5.77
107 | O=C(CCCc1cn[nH]c1)N1CCOCC(O)C1 (stereo unspecified) | 0.158
108 | Cc1ccc(-c2nnc(C(C)N3CCc4cncnc4C3)o2)cc1 (stereo unspecified) | 1.38
109 | CCCNC(=O)CN1CCCC1c1nc(Cc2ccc(F)cc2)no1 (stereo unspecified) | -4.46
110 | CN1CCC(N(C)CCC(=O)N2CCC(OCc3ccccc3)CC2)C1 (stereo unspecified) | 29.2
111 | CC(C)CNC(=O)CC1(Cn2cnnn2)CCCCC1 | -12.5
